Experimental findings from patent US20080058356A1, “2,6 Bisheteroaryl-4-Aminopyrimidines as Adenosine Receptor Antagonists” (Neurocrine Biosciences, Inc., priority 2003, published 2008) are described below.

Each structure is given as a SMILES string.

`c1ccc([C@H]2C[C@@H]2Nc2cc(-c3ccco3)nc(-c3nccs3)n2)cc1` (relative stereo) [Example 198, 6-(2-Furyl)-N-[(1S*,2R*)-2-phenylcyclopropyl]-2-(1,3-thiazol-2-yl)pyrimidin-4-amine] showed a melting point of 90 to 91.9 °C.
In the case of `Nc1cc(-n2cccn2)nc(-c2ccc(Cl)o2)n1` [Example 50, 2-(5-Chloro-2-furyl)-6-(1H-pyrazol-1-yl)pyrimidin-4-amine] it was 209.9 to 211 °C.
In the case of `CCC(=O)Nc1cc(-n2cccn2)nc(-c2ccc(Cl)o2)n1` [Example 51, N-[2-(5-Chloro-2-furyl)-6-(1H-pyrazol-1-yl)pyrimidin-4-yl]propanamide] it was 189.3 to 190.1 °C; in that of `CCC(=O)Nc1cc(-c2cccnc2)nc(-c2ccco2)n1` [Example 54, N-[2-(2-Furyl)-6-pyridin-3-ylpyrimidin-4-yl]propanamide], 251.8 to 253.2 °C; in that of `Nc1cc(-c2cccnc2)nc(-c2ccco2)n1` [Example 55, 2-(2-Furyl)-6-pyridin-3-ylpyrimidin-4-amine], 232.7 to 233.1 °C.
To `c1coc(-c2nc(NCC3CC3)cc(-n3cccn3)n2)c1` [Example 119, N-(Cyclopropylmethyl)-2-(2-furyl)-6-(1H-pyrazol-1-yl)pyrimidin-4-amine] belongs 100.9 to 101.7 °C; to `NCCNc1cc(-n2cccn2)nc(-c2ccco2)n1` [Example 122, N-[2-(2-Furyl)-6-(1H-pyrazol-1-yl)pyrimidin-4-yl]ethane-1,2-diamine], 104.1 to 105.1 °C; to `c1ccc(CCNc2cc(-n3cccn3)nc(-c3ccco3)n2)nc1` [Example 125, 2-(2-Furyl)-6-(1H-pyrazol-1-yl)-N-[2-(pyridin-2-yl)ethyl]pyrimidin-4-amine], 110.2 to 110.9 °C.
With `OCCCNc1cc(-n2cccn2)nc(-c2cccs2)n1` [Example 131, 3-{[6-(1H-Pyrazol-1-yl)-2-(2-thienyl)pyrimidin-4-yl]amino}propan-1-ol], the melting point was in the range of 129.9 to 130.8 °C.
In the case of `NCCNc1cc(-n2cccn2)nc(-c2cccs2)n1` [Example 132, N-(2-Aminoethyl)-N-[6-(1H-pyrazol-1-yl)-2-(2-thienyl)pyrimidin-4-yl]amine] it was 146.6 to 147.1 °C.
To `COc1ccc(CCNc2cc(-n3cccn3)nc(-c3cccs3)n2)cc1OC` [Example 134, N-[2-(3,4-Dimethoxyphenyl)ethyl]-6-(1H-pyrazol-1-yl)-2-(2-thienyl)pyrimidin-4-amine] belongs 116.2 to 117.3 °C; to `COc1ccc(CCNc2cc(-c3ccco3)nc(-c3nccs3)n2)cc1OC` [Example 196, N-[2-(3,4-Dimethoxyphenyl)ethyl]-6-(2-furyl)-2-(1,3-thiazol-2-yl)pyrimidin-4-amine], 83 to 83.8 °C; to `COc1ccc(COC(=O)Nc2cc(-n3cccn3)nc(-c3ccco3)n2)cc1OC` [Example 202, 3,4-Dimethoxybenzyl [2-(2-furyl)-6-(1H-pyrazol-1-yl)pyrimidin-4-yl]carbamate], 147.8 to 148.5 °C.
